In ChEMBL document CHEMBL2150977, “Synthesis of highly water-soluble fibrate derivatives via BGLation” (Bioorg Med Chem Lett, 2012):
The source made the active and inactive calls. The rule behind the calls is not given here.

Assays:
[1] = Aqueous solubility of the compound; assay type: physicochemical; conditions: water
[2] = system: Rattus norvegicus; assay: Toxicity in Sprague-Dawley rat assessed as aberrant behaviour at […], po relative to vehicle-treated control; assay type: organism-based; conditions: in vivo
[3] = system: Rattus norvegicus; assay: Antihyperlipidemic activity in Sprague-Dawley rat assessed as decrease in plasma triglyceride level at […], po administered QD for 8 days relative to vehicle-treated control; assay type: functional, organism-based
[4] = system: Rattus norvegicus; assay: Toxicity in Sprague-Dawley rat assessed as body weight loss at […], po relative to vehicle-treated control; assay type: organism-based; conditions: in vivo
[5] = system: Rattus norvegicus; assay: Drug metabolism in Sprague-Dawley rat assessed as fenofibric acid level in plasma at 150 mg/kg, po after 4 hrs; assay type: ADME, organism-based; design: dose 150 mg/kg, route oral; conditions: in vivo
[6] = system: Rattus norvegicus; assay: Drug metabolism in Sprague-Dawley rat assessed as fenofibric acid level in plasma at 100 mg/kg, po after 4 hrs; assay type: ADME, organism-based; design: dose 100 mg/kg, route oral; conditions: in vivo

Structure (SMILES) | solubility [1] | Drug metabolism [5] | Drug metabolism [6] | Activity [2] | Activity [3] | Activity [4]
CC(C)(Oc1ccc(Cl)cc1)C(=O)OC(COC(CO)CO)COC(CO)CO | > 1000 µg/mL |  |  |  |  | 
CC(C)(Oc1ccc(C(=O)c2ccc(Cl)cc2)cc1)C(=O)OCCO |  |  |  | Non-toxic | Active | Non-toxic
CC(C)OC(=O)C(C)(C)Oc1ccc(C(=O)c2ccc(Cl)cc2)cc1 [FENOFIBRATE] |  |  | Active |  | Active | 
CC(C)(Oc1ccc(C(=O)c2ccc(Cl)cc2)cc1)C(=O)OC(CO)CO |  |  |  | Non-toxic | Active | Non-toxic

The next lines start with results.

solubility [1] | Drug metabolism [5] | Drug metabolism [6] | Structure (SMILES) | Activity [2] | Activity [3] | Activity [4]
> 1000 µg/mL | Active |  | CC(C)(Oc1ccc(C(=O)c2ccc(Cl)cc2)cc1)C(=O)OC(COC(CO)CO)COC(CO)CO | Non-toxic | Active | Non-toxic
> 1000 µg/mL |  |  | CC(C)(Oc1ccc(CCNC(=O)c2ccc(Cl)cc2)cc1)C(=O)OC(COC(CO)CO)COC(CO)CO |  |  | 
